According to patent US20010049373A1, “Materials and methods for killing nematodes and nematode eggs” (priority 2000, published 2001):
Where “and” joins values, the source holds several entries; their conditions need not be identical. Equal entries are not always repeated.

Key:
[1] = tested on: gastrointestinal nematodes (trichostrongyle, Strongyloides, Trichuris, Nematodirus eggs); assay: Sheep Test I: fecal egg per gram (EPG) counts; type: in vivo; settings: for % Change, Strongyles EPG-5 day vs EPG-pre, Total/Mean / Strongyles EPG-5 day (22-Jan), Total/Mean / % Change, Strongyles EPG-7 day vs EPG-pre, Total/Mean / Strongyles EPG-7 day (24-Jan), Total/Mean: group mean; for % Change, Strongyles EPG-5 day vs EPG-pre, Total/Mean / Strongyles EPG-5 day (22-Jan), Total/Mean / Strongyles EPG-5 day (22-Jan): 5 days after treatment; for % Change, Strongyles EPG-7 day vs EPG-pre, Total/Mean / Strongyles EPG-7 day (24-Jan), Total/Mean / % Change, Strongyles EPG-7 day vs EPG-pre / Strongyles EPG-7 day (24-Jan): 7 days after treatment; for Strongyles EPG-5 day (22-Jan) / % Change, Strongyles EPG-7 day vs EPG-pre / Strongyles EPG-7 day (24-Jan): individual sheep
Protocol: Sheep naturally infected with a variety of gastrointestinal nematodes are purchased from local sources and are transported to the test site. The animals are housed in a manner to preclude further infection by nematode larvae. The animals are evaluated for the presence of adequate nematode burdens by performing a standard fecal egg per gram (EPG) count. Eggs are differentiated into the following groups: trichostrongyle (strongyle), Strongyloides, Trichuris, or Nematodinis. Only sheep judged by the study parasitologist to have adequate nematode infections are retained as test subjects.
The sheep are fed good quality hay (no concentrated rations) and water ad libitum. Following a five-day acclimation period, the sheep are randomly assigned by EPG count into treatment groups which include non-treated Negative control (placebo); Positive Control (commercially available ivermectin for sheep): and various anthelmintic compounds of the present invention (test compound) dissolved in DMSO. The first replicate of 10 animals is randomly assigned to groups 1-10; the second replicate of 10 animals is randomly assigned to groups 1-10; and the third replicate of 10 animals is randomly assigned to groups 1-10. Thus 10 groups of 3 animals each is created.
The randomization is performed on fecal samples collected 24-48 hours prior to scheduled treatment. The EPG counts are performed according to Zimmerman Research SOP # NMEPG.99.01
On treatment day, the animals are weighed and divided into groups with three animals per group as follows:
The placebo (DMSO), the commercially available drug, and the test anthelmintic compounds are administered in a 3 ml volume by subcutaneous injection using a sterile syringe fitted with a proper needle. The animal is adequately immobilized for injection of the placebo, commercially available drug, or test anthelmintic compound.
Following treatment, the animals are observed at hourly intervals for the first 8 hours, then daily until necropsy. They will continue to be housed in a manner to prevent further nematode infections. Fecal samples are taken for EPG counts on the 5th day and 7th day after treatment.
Seven days following treatment the sheep are humanely slaughtered in accordance with the Guide for the Care and Use of Laboratory Animals (DHEW Publication No. 86-23). Necropsy procedures are according to Zimmerman Research SOP # NCRGIH.99.01, Necropsy for Helminth Recovery, specifically for gastrointestinal nematodes. Fecal samples are taken for EPG counts during the sample collection process on this day. All animals are necropsied, but only the animals from the experimental treatment groups that have a significant egg count reduction on day 5 or day 7 will have intestinal material collected for nematode recovery and identification.

[2] = tested on: gastrointestinal nematodes; assay: Sheep Test II: nematode recovery at necropsy, controlled test efficacy; type: in vivo; settings: for Mean Ct., Abomasum Haemonchus / Mean Ct., Abomasum Ostertagia / Mean Ct., Large Intest. Trichuris / Mean Ct., Small Intest. Nematodirus / Mean Ct., Small Intestine Trichostrongylus: group mean; for Mean Ct., Abomasum Haemonchus / Mean Ct., Abomasum Ostertagia / Mean Ct., Large Intest. Trichuris / Mean Ct., Small Intest. Nematodirus / Mean Ct., Small Intestine Trichostrongylus / Worm Counts, Abomasum Haemonchus / Worm Counts, Abomasum ostertagia / Worm Counts, Large Intest. Trichuris / Worm Counts, Small Intest. Nematodirus / Worm Counts, Small Intestine Trichostrongylus: necropsy seven days following treatment; for Worm Counts, Abomasum Haemonchus / Worm Counts, Abomasum ostertagia / Worm Counts, Large Intest. Trichuris / Worm Counts, Small Intest. Nematodirus / Worm Counts, Small Intestine Trichostrongylus: individual sheep
Protocol: Sheep naturally infected with a variety of gastrointestinal nematodes are purchased from local sources and are transported to the test site. The animals are housed in a manner to preclude further infection by nematode larvae. The animals are evaluated for the presence of adequate nematode burdens by performing a standard fecal egg per gram (EPG) count. Eggs are differentiated into the following groups: trichostrongyle (strongyle), Strongyloides, Trichuris, or Nematodiris. Only sheep judged by the study parasitologist to have adequate nematode infections are retained as test subjects. The sheep are fed good quality hay (no concentrated rations) and water ad libitum. Following a five day acclimation period, the sheep are randomly assigned by EPG count into the following treatment groups: Groups 1-9, various anthelmintic compounds of the present invention (test compound) dissolved in DMSO: […] Group 11, non-treated Negative control (DMSO only). The first replicate of 1 I animals is randomly assigned to groups 1-1; the second replicate of 11 animals is randomly assigned to groups 1-11; and the third replicate of 11 animals is randomly assigned to groups 1-1. Thus 11 groups of 3 animals each are created. The placebo (DMSO), the commercially available drug, and the test anthelmintic compounds are administered in a 3 ml volume of DMSO by subcutaneous injection using a sterile syringe fitted with a sterile needle. The site of injection is clipped and swabbed with alcohol prior to injection. The animal is adequately immobilized for injection of the placebo, commercially available drug, or experimental compound. Seven days following treatment, all the sheep are weighed and humanely slaughtered in accordance with the Guide for the Care and Use of Laboratory Animals (DHEW Publication No. 86-23). Necropsy procedures are according to Zimmerman Research SOP # […].00.01, Necropsy for Helminth Recovery, specifically for gastrointestinal nematodes. Fecal samples are taken for EPG counts during the sample collection process on this day. Nematodes are recovered, identified, and enumerated according to Zimmerman Research SOP # […].00.01. All individuals performing nematode recoveries are blinded to treatment versus control animals.

[3] = Ivermectin 200 mcg/kg, controlled test procedure

For 22,23-dihydroavermectin B1 [ivermectin], the “% Change, Strongyles EPG-5 day vs EPG-pre, Total/Mean” value ([1]; Ivermectin .2 mg/kg) was 99.62%, the “Strongyles EPG-5 day (22-Jan), Total/Mean” value ([1]; Ivermectin .2 mg/kg) was 3.33 EPG and the “% Change, Strongyles EPG-7 day vs EPG-pre, Total/Mean” value ([1]; Ivermectin .2 mg/kg) was 100.00%. The “Strongyles EPG-7 day (24-Jan), Total/Mean” value ([1]; Ivermectin .2 mg/kg) was 0.00 EPG, the “Strongyles EPG-5 day (22-Jan)” value ([1]; Ivermectin .2 mg/kg) was 10 EPG and 0 EPG (2×) and the “% Change, Strongyles EPG-7 day vs EPG-pre” value ([1]; Ivermectin .2 mg/kg) was 100.00%. For the same molecule, the “Strongyles EPG-7 day (24-Jan)” value ([1]; Ivermectin .2 mg/kg) was 0 EPG, the “% Efficacy, Abomasum Haemonchus” value [2, 3] was 86% and the “% Efficacy, Abomasum ostertagia” value [2, 3] was 100%. For the same molecule, the “% Efficacy, Small Intest. Nematodirus” value [2, 3] was 98%, the “% Efficacy, Small Intestine Trichostrongylus” value [2, 3] was 100% and the “Mean Ct., Abomasum Haemonchus” value ([2]; Ivermectin 200 mcg/kg) was 7. The “Mean Ct., Abomasum Ostertagia” value ([2]; Ivermectin 200 mcg/kg) was 0, the “Mean Ct., Large Intest. Trichuris” value ([2]; Ivermectin 200 mcg/kg) was 0 and the “Mean Ct., Small Intest. Nematodirus” value ([2]; Ivermectin 200 mcg/kg) was 67. The “Mean Ct., Small Intestine Trichostrongylus” value ([2]; Ivermectin 200 mcg/kg) was 0, the “Worm Counts, Abomasum Haemonchus” value ([2]; Ivermectin 200 mcg/kg) was 0 (2×) and 20 and the “Worm Counts, Abomasum ostertagia” value ([2]; Ivermectin 200 mcg/kg) was 0. The “Worm Counts, Large Intest. Trichuris” value ([2]; Ivermectin 200 mcg/kg) was 0, the “Worm Counts, Small Intest. Nematodirus” value ([2]; Ivermectin 200 mcg/kg) was 100 (2×) and 0 and the “Worm Counts, Small Intestine Trichostrongylus” value ([2]; Ivermectin 200 mcg/kg) was 0.

In the case of `CCC1CCCCN1c1cc(Oc2ccc3oc4ccccc4c3c2)ncn1` (stereo not drawn) [AKC 109], the “% Change, Strongyles EPG-5 day vs EPG-pre, Total/Mean” value ([1]; AKC 109 1.4 mg/kg) is reported as 76.43%, the “Strongyles EPG-5 day (22-Jan), Total/Mean” value ([1]; AKC 109 1.4 mg/kg) is reported as 206.67 EPG and the “% Change, Strongyles EPG-7 day vs EPG-pre, Total/Mean” value ([1]; AKC 109 1.4 mg/kg) is reported as 85.55%. The “Strongyles EPG-7 day (24-Jan), Total/Mean” value ([1]; AKC 109 1.4 mg/kg) was 126.67 EPG, the “Strongyles EPG-5 day (22-Jan)” value ([1]; AKC 109 1.4 mg/kg, 1.4 mg/kg) was 30 EPG and 590 EPG and 0 EPG and the “% Change, Strongyles EPG-7 day vs EPG-pre” value ([1]; AKC 109 1.4 mg/kg, 1.4 mg/kg) was 84.30% and −195.00% and 100.00%. For the same molecule, the “Strongyles EPG-7 day (24-Jan)” value ([1]; AKC 109 1.4 mg/kg, 1.4 mg/kg) was 380 EPG and 0 EPG, the “% Efficacy, Abomasum Haemonchus” value ([2]; AKC 109 .8 mg/kg, controlled test procedure) was 100% and the “Mean Ct., Abomasum Haemonchus” value ([2]; AKC 109 .8 mg/kg) was 0. The “Mean Ct., Abomasum Ostertagia” value ([2]; AKC 109 .8 mg/kg) was 690, the “Mean Ct., Large Intest. Trichuris” value ([2]; AKC 109 .8 mg/kg) was 3 and the “Mean Ct., Small Intest. Nematodirus” value ([2]; AKC 109 .8 mg/kg) was 7120. For the same molecule, the “Mean Ct., Small Intestine Trichostrongylus” value ([2]; AKC 109 .8 mg/kg) was 130, the “Worm Counts, Abomasum Haemonchus” value ([2]; AKC 109 .8 mg/kg) was 0 and the “Worm Counts, Abomasum ostertagia” value ([2]; AKC 109 .8 mg/kg) was 1100 and 280. For the same molecule, the “Worm Counts, Large Intest. Trichuris” value ([2]; AKC 109 .8 mg/kg) was 5 and 0, the “Worm Counts, Small Intest. Nematodirus” value ([2]; AKC 109 .8 mg/kg) was 12020 and 2220 and the “Worm Counts, Small Intestine Trichostrongylus” value ([2]; AKC 109 .8 mg/kg) was 240 and 20.
